Measured values from the supplement of paper PMC10307832.

Tests used:
Assay in all cases: relative viability (nuclei count vs DMSO), 5 days (fraction); higher = more cells survive
CAP-232 + Lapatinib = compound: C[C@H]([C@@H](C(=O)N)NC(=O)[C@@H]1CSSC[C@@H](C(=O)N[C@H](C(=O)N[C@@H](C(=O)N[C@H](C(=O)N1)CCCCN)CC2=CNC3=CC=CC=C32)CC4=CC=C(C=C4)O)NC(=O)[C@@H](CC5=CC=CC=C5)N)O [CAP-232] + CS(=O)(=O)CCNCc1ccc(-c2ccc3ncnc(Nc4ccc(OCc5cccc(F)c5)c(Cl)c4)c3c2)o1 [Lapatinib] (partner 2 µM)
Method in brief: (§1)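 Lung cancer cell lines were pin-tool dosed in 1536-well plates on the day after seeding, with either a lone drug or a fixed anchor-drug dose plus five library-drug doses (not always all listed) in √10 steps. Nuclei were counted on 4× images after 5 days. Relative viability is the ratio of treated-well to vehicle-well nuclei counts, with each value a median of duplicate plates.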

CAP-232 + Pictilisib = compound: C[C@H]([C@@H](C(=O)N)NC(=O)[C@@H]1CSSC[C@@H](C(=O)N[C@H](C(=O)N[C@@H](C(=O)N[C@H](C(=O)N1)CCCCN)CC2=CNC3=CC=CC=C32)CC4=CC=C(C=C4)O)NC(=O)[C@@H](CC5=CC=CC=C5)N)O [CAP-232] + CS(=O)(=O)N1CCN(Cc2cc3nc(-c4cccc5[nH]ncc45)nc(N4CCOCC4)c3s2)CC1 [Pictilisib] (partner 1 µM)
Method in brief: as §1

CAP-232 + Bortezomib = compound: C[C@H]([C@@H](C(=O)N)NC(=O)[C@@H]1CSSC[C@@H](C(=O)N[C@H](C(=O)N[C@@H](C(=O)N[C@H](C(=O)N1)CCCCN)CC2=CNC3=CC=CC=C32)CC4=CC=C(C=C4)O)NC(=O)[C@@H](CC5=CC=CC=C5)N)O [CAP-232] + CC(C)C[C@H](NC(=O)[C@H](Cc1ccccc1)NC(=O)c1cnccn1)B(O)O [Bortezomib] (partner 0.002 µM)
Method in brief: as §1

CAP-232 + Pemetrexed = compound: C[C@H]([C@@H](C(=O)N)NC(=O)[C@@H]1CSSC[C@@H](C(=O)N[C@H](C(=O)N[C@@H](C(=O)N[C@H](C(=O)N1)CCCCN)CC2=CNC3=CC=CC=C32)CC4=CC=C(C=C4)O)NC(=O)[C@@H](CC5=CC=CC=C5)N)O [CAP-232] + Nc1nc2[nH]cc(CCc3ccc(C(=O)N[C@@H](CCC(=O)O)C(=O)O)cc3)c2c(=O)[nH]1 [Pemetrexed] (partner 0.2 µM)
Method in brief: as §1

CAP-232 + Palbociclib = compound: C[C@H]([C@@H](C(=O)N)NC(=O)[C@@H]1CSSC[C@@H](C(=O)N[C@H](C(=O)N[C@@H](C(=O)N[C@H](C(=O)N1)CCCCN)CC2=CNC3=CC=CC=C32)CC4=CC=C(C=C4)O)NC(=O)[C@@H](CC5=CC=CC=C5)N)O [CAP-232] + CC(=O)c1c(C)c2cnc(Nc3ccc(N4CCNCC4)cn3)nc2n(C2CCCC2)c1=O [Palbociclib] (partner 0.5 µM)
Method in brief: as §1

Row | Cell Line | relative viability (CAP-232 + Lapatinib; first compound 0.4 µM) | relative viability (CAP-232 + Lapatinib; first compound 1.265 µM) | relative viability (CAP-232 + Lapatinib; first compound 4 µM) | relative viability (CAP-232 + Lapatinib; first compound 12.65 µM) | relative viability (CAP-232 + Pictilisib; first compound 0.4 µM) | relative viability (CAP-232 + Pictilisib; first compound 1.265 µM) | relative viability (CAP-232 + Pictilisib; first compound 4 µM) | relative viability (CAP-232 + Pictilisib; first compound 12.65 µM) | relative viability (CAP-232 + Bortezomib; first compound 0.4 µM) | relative viability (CAP-232 + Bortezomib; first compound 1.265 µM) | relative viability (CAP-232 + Bortezomib; first compound 4 µM) | relative viability (CAP-232 + Bortezomib; first compound 12.65 µM) | relative viability (CAP-232 + Pemetrexed; first compound 0.4 µM) | relative viability (CAP-232 + Pemetrexed; first compound 1.265 µM) | relative viability (CAP-232 + Pemetrexed; first compound 4 µM) | relative viability (CAP-232 + Pemetrexed; first compound 12.65 µM) | relative viability (CAP-232 + Palbociclib; first compound 0.4 µM) | relative viability (CAP-232 + Palbociclib; first compound 1.265 µM) | relative viability (CAP-232 + Palbociclib; first compound 4 µM) | relative viability (CAP-232 + Palbociclib; first compound 12.65 µM)
1 | NCI-H596 | 1.13 | 1.03 | 1.01 | 0.974 | 0.421 | 0.388 | 0.36 | 0.328 | 1.14 | 1.2 | 0.701 | 0.925 | 0.562 | 0.49 | 0.439 | 0.448 |  |  |  | 
2 | NCI-H727 |  | 0.792 | 0.826 | 0.719 |  | 0.346 | 0.361 | 0.28 |  | 0.754 | 1.11 | 0.601 |  |  |  |  | 0.528 | 0.65 | 0.558 | 0.701
3 | NCI-H1395 | 1.01 | 0.933 | 1.09 | 0.911 | 0.593 | 0.433 | 0.602 | 0.576 |  |  |  |  | 0.971 |  | 0.917 | 0.503 | 0.679 |  | 0.665 | 0.578
4 | NCI-H1563 | 1.09 | 0.862 | 1.07 | 0.635 | 0.677 | 0.626 | 0.689 | 0.486 | 0.836 | 0.735 | 0.957 | 0.687 | 0.802 | 0.655 | 0.744 | 0.669 |  |  |  | 
5 | NCI-H1703 | 1.44 | 1.01 | 1.21 | 0.882 | 0.245 | 0.224 | 0.269 | 0.261 | 0.251 | 0.333 | 0.226 | 0.164 |  |  |  |  |  |  |  | 
6 | NCI-H1793 | 0.563 | 0.625 | 0.75 | 0.745 | 0.334 | 0.284 | 0.31 | 0.283 |  |  |  |  | 1.01 | 0.61 | 0.905 | 0.696 | 0.401 | 0.313 | 0.303 | 0.324
7 | NCI-H1944 | 0.942 | 0.729 | 0.998 | 0.773 | 0.371 | 0.33 | 0.394 | 0.354 |  |  |  |  | 0.569 | 0.517 | 0.601 | 0.573 | 0.393 | 0.31 | 0.326 | 0.325
8 | NCI-H2170 | 0.274 | 0.281 | 0.255 | 0.272 | 0.257 | 0.275 | 0.259 | 0.286 |  |  |  |  | 0.247 | 0.261 | 0.267 | 0.244 | 0.358 | 0.38 | 0.429 | 0.424
9 | NCI-H2342 |  |  |  |  |  |  |  |  |  |  |  |  | 0.798 | 0.745 | 0.779 | 0.835 | 0.45 | 0.509 | 0.497 | 0.487
10 | SK-MES-1 | 0.534 | 0.469 | 0.419 | 0.473 | 0.335 | 0.379 | 0.32 | 0.323 |  |  |  |  | 1.04 | 0.95 | 0.961 | 0.608 | 0.324 | 0.292 | 0.278 | 0.258
11 | SW 900 |  |  |  |  |  |  |  |  |  |  |  |  | 0.487 | 0.48 | 0.47 | 0.499 | 0.528 | 0.481 | 0.512 | 0.465
